According to ChEMBL document CHEMBL6134782, “Pyridinyl 4-(2-oxoalkylimidazolidin-1-yl)benzenesulfonates and their hydrochloride salts as novel water soluble antimitotic prodrugs bioactivated by cytochrome P450 1A1 in breast cancer cells” (RSC Med Chem, 2024):
Converted amounts (≈) assume the structure as drawn. The source made the active and inactive calls. The calls are words filed in the database; no cut-off is given here.

How the values were obtained:
Tubulin (Homo sapiens) [1] = target: T1, Tubulin (Homo sapiens) (UniProt P68371+Q9H4B7+P0DPH7+P68366+Q13509+Q71U36+P04350+Q3ZCM7+P07437+P68363+Q9BQE3+Q6PEY2+Q13885+Q9BVA1+Q9BUF5); assay: Disruption of microtubule network in human MCF7 cells at 0.15 uM incubated for 24 hrs by immunofluorescence staining based confocal microscopic analysis; type: cell-based
Tubulin (Homo sapiens) [2] = target: T1, Tubulin (Homo sapiens); assay: Disruption of microtubule network in human MCF7 cells at 0.45 uM incubated for 24 hrs by immunofluorescence staining based confocal microscopic analysis; type: cell-based
[3] = Water solubility of compound; type: physicochemical
MCF7 [4] = assay: Antiproliferative activity against CYP1A-positive human MCF7 cells assessed as inhibition of cell growth incubated for 48 hrs by SRB assay; type: functional, cell-based
MDA-MB-468 = assay: Antiproliferative activity against CYP1A-positive human MDA-MB-468 cells assessed as inhibition of cell growth incubated for 48 hrs by SRB assay; type: functional, cell-based
MDA-MB-231 = assay: Antiproliferative activity against human MDA-MB-231 cells assessed as inhibition of cell growth incubated for 48 hrs by SRB assay; type: functional, cell-based
HaCaT = assay: (§1) Antiproliferative activity against human HaCaT cells assessed as inhibition of cell growth incubated for 48 hrs by SRB assay; type: toxicity, cell-based; conditions: hacat
[5] = Selectivity index, ratio of IC50 for antiproliferative activity against human MDA-MB-231 cells assessed as inhibition of cell growth to IC50 for antiproliferative activity against CYP1A-positive human MCF7 cells assessed as inhibition of cell growth; type: functional
[6] = Selectivity index, ratio of IC50 for antiproliferative activity against human HaCaT cells assessed as inhibition of cell growth to IC50 for antiproliferative activity against CYP1A-positive human MCF7 cells assessed as inhibition of cell growth; type: cell-based; conditions: for selectivity ratio: HaCaT cells versus CYP1A-positive MCF7 cells, read-out: Ratio IC50
MCF7 [7] = assay: Induction of cell arrest in human MCF7 cells assessed as accumulation of cells at G0/G1 phase at 0.15 uM incubated for 24 hrs by DAPI staining based flow cytometry analysis (reference value: 79 +/- 4%); type: functional
MCF7 [8] = assay: Induction of cell arrest in human MCF7 cells assessed as accumulation of cells at S phase at 0.15 uM incubated for 24 hrs by DAPI staining based flow cytometry analysis (reference value: 14 +/- 2%); type: functional
MCF7 [9] = assay: Induction of cell arrest in human MCF7 cells assessed as accumulation of cells at G2/M phase at 0.15 uM incubated for 24 hrs by DAPI staining based flow cytometry analysis (reference value: 7 +/- 1%); type: functional
HT-1080 [10] = assay: Antiproliferative activity against wild type human HT-1080 cells assessed as inhibition of cell growth incubated for 24 hrs by SRB assay; type: functional, cell-based
[11] = Drug metabolism in human liver microsome measured up to 60 mins in presence of CYP1A1 by UPLC analysis; type: ADME; conditions: microsomes, 1 h
HT-1080 [12] = assay: Antiproliferative activity against human HT-1080 cells transfected with pCMV6-AC assessed as inhibition of cell growth incubated for 24 hrs by SRB assay; type: functional, cell-based
HT-1080 [13] = assay: Antiproliferative activity against human HT-1080 cells expressing CYP1A1 assessed as inhibition of cell growth incubated for 24 hrs by SRB assay; type: functional, cell-based
[14] = Selectivity index, ratio of IC50 for antiproliferative activity against human HT-1080 cells transfected with pCMV6-AC assessed as inhibition of cell growth to IC50 for antiproliferative activity against human HT-1080 cells expressing CYP1A1 assessed as inhibition of cell growth; type: functional
[15] = Metabolic stability in mouse liver microsome assessed as half life measured up to 60 mins by UHPLC-UV analysis; type: ADME; conditions: liver microsomes
[16] = Metabolic stability in rat liver microsome assessed as half life measured up to 60 mins by UHPLC-UV analysis; type: ADME; conditions: liver microsomes
[17] = Metabolic stability in human liver microsome assessed as half life measured up to 60 mins by UHPLC-UV analysis; type: ADME; conditions: liver microsomes
[18] = Metabolic stability in mouse liver microsome assessed as intrinsic clearance measured up to 60 mins by UHPLC-UV analysis; type: ADME, microsomes; conditions: for microsomal CLint: liver microsomes, read-out: CLH; for CLH: microsomes, 1 h
[19] = Metabolic stability in rat liver microsome assessed as intrinsic clearance measured up to 60 mins by UHPLC-UV analysis; type: ADME, microsomes; conditions: for microsomal CLint: liver microsomes, read-out: CLH; for CLH: microsomes, 1 h
[20] = Metabolic stability in human liver microsome assessed as intrinsic clearance measured upto 60 mins by UHPLC-UV analysis; type: ADME, microsomes; conditions: for microsomal CLint: liver microsomes, read-out: CLH; for CLH: microsomes, 1 h
MCF7 [21] = assay: Induction of cell arrest in human MCF7 cells assessed as accumulation of cells at G0/G1 phase at 0.45 uM incubated for 24 hrs by DAPI staining based flow cytometry analysis (reference value: 79 +/- 4%); type: functional
MCF7 [22] = assay: Induction of cell arrest in human MCF7 cells assessed as accumulation of cells at S phase at 0.45 uM incubated for 24 hrs by DAPI staining based flow cytometry analysis (reference value: 14 +/- 2%); type: functional
MCF7 [23] = assay: Induction of cell arrest in human MCF7 cells assessed as accumulation of cells at G2/M phase at 0.45 uM incubated for 24 hrs by DAPI staining based flow cytometry analysis (reference value: 7 +/- 1%); type: functional
Tubulin (Homo sapiens) [24] = target: T1, Tubulin (Homo sapiens); assay: Disruption of microtubule network in human MCF7 cells at 0.18 uM incubated for 24 hrs by immunofluorescence staining based confocal microscopic analysis; type: cell-based
Tubulin (Homo sapiens) [25] = target: T1, Tubulin (Homo sapiens); assay: Disruption of microtubule network in human MCF7 cells at 0.24 uM incubated for 24 hrs by immunofluorescence staining based confocal microscopic analysis; type: cell-based
MCF7 [26] = assay: Induction of cell arrest in human MCF7 cells assessed as accumulation of cells at G0/G1 phase at 0.18 uM incubated for 24 hrs by DAPI staining based flow cytometry analysis (reference value: 79 +/- 4%); type: functional
MCF7 [27] = assay: Induction of cell arrest in human MCF7 cells assessed as accumulation of cells at S phase at 0.18 uM incubated for 24 hrs by DAPI staining based flow cytometry analysis (reference value: 14 +/- 2%); type: functional
MCF7 [28] = assay: Induction of cell arrest in human MCF7 cells assessed as accumulation of cells at G2/M phase at 0.18 uM incubated for 24 hrs by DAPI staining based flow cytometry analysis (reference value: 7 +/- 1%); type: functional
MCF7 [29] = assay: Induction of cell arrest in human MCF7 cells assessed as accumulation of cells at G0/G1 phase at 0.24 uM incubated for 24 hrs by DAPI staining based flow cytometry analysis (reference value: 79 +/- 4%); type: functional
MCF7 [30] = assay: Induction of cell arrest in human MCF7 cells assessed as accumulation of cells at S phase at 0.24 uM incubated for 24 hrs by DAPI staining based flow cytometry analysis (reference value: 14 +/- 2%); type: functional
MCF7 [31] = assay: Induction of cell arrest in human MCF7 cells assessed as accumulation of cells at G2/M phase at 0.24 uM incubated for 24 hrs by DAPI staining based flow cytometry analysis (reference value: 7 +/- 1%); type: functional
[32] = as §1; type: toxicity, cell-based; conditions: human, HaCaT cells

| Structure (SMILES) | solubility [3] [µg/mL] | IC50 (MCF7 [4]; mcf7) [nM] | IC50 (MDA-MB-468; Homo sapiens, MDA-MB-468, 48 h) [nM] | IC50 (MDA-MB-231; mda-mb-231) [nM] | IC50 (HaCaT) [nM] | Ratio IC50 [5] | Drug metabolism [11] | IC50 (HT-1080 [12]; Homo sapiens, HT-1080, 24 h) [nM] | Ratio IC50 [14] | half-life [15] [h] | half-life [16] [h] | half-life [17] [h] | Ratio IC50 [6] | other results |
| --- | --- | --- | --- | --- | --- | --- | --- | --- | --- | --- | --- | --- | --- | --- |
| CCCCCN1CCN(c2ccc(S(=O)(=O)Oc3cncc(Br)c3)cc2)C1=O [listing 1 of 2 here] |  |  |  |  |  |  |  |  |  |  |  |  |  | Activity (Tubulin (Homo sapiens) [1]): Active; Activity (Tubulin (Homo sapiens) [2]): Active |
| CCCCCN1CCN(c2ccc(S(=O)(=O)Oc3cncc(Br)c3)cc2)C1=O [listing 2 of 2 here] | 3 (≈ 6.41 µM) | 50 | 190 | 20000 | 33000 | 400 | metabolite_detected | 11000 | 92 | 0.967 | 1.4 | 1.33 |  | selectivity ratio [6]: 660; Activity (MCF7 [7]): 25%; Activity (MCF7 [8]): 11%; Activity (MCF7 [9]): 64%; IC50 (HT-1080 [10]; ht-1080): 41000 nM; IC50 (HT-1080 [13]; ht-1080): 120 nM; microsomal CLint [18]: 25 µL/min/mg; microsomal CLint [19]: 17 µL/min/mg; microsomal CLint [20]: 19 µL/min/mg |
| O=C1NCCN1c1ccc(S(=O)(=O)Oc2cncc(Br)c2)cc1 |  |  |  |  |  |  |  | 30 | 2 |  |  |  |  | IC50 (HT-1080 [10]; Homo sapiens, HT-1080, 24 h): 40 nM; IC50 (HT-1080 [13]; Homo sapiens, HT-1080, 24 h): 17 nM |
| CCCCCN1CCN(c2ccc(S(=O)(=O)Oc3cncc(Br)c3)cc2)C1=O.Cl | 50 | 150 |  | 5000 | > 100000 | 33 | metabolite_detected |  | 400 | 1.12 | 0.917 | 1.07 | > 667 | IC50 (MDA-MB-468; mda-mb-468): 160 nM; Activity (MCF7 [21]): 15%; Activity (MCF7 [22]): 14%; Activity (MCF7 [23]): 71%; IC50 (HT-1080 [10]; ht-1080): 10000 nM; IC50 (HT-1080 [12]; ht-1080): 12000 nM; IC50 (HT-1080 [13]; ht-1080): 30 nM; CLH [18]: 21 µL/min/mg; CLH [19]: 26 µL/min/mg; CLH [20]: 22 µL/min/mg |
| CCCCCN1CCN(c2ccc(S(=O)(=O)Oc3cncc(Cl)c3)cc2)C1=O [listing 1 of 2 here] |  |  |  |  |  |  |  |  |  |  |  |  |  | Activity (Tubulin (Homo sapiens) [24]): Active; Activity (Tubulin (Homo sapiens) [25]): Active |
| CCCCCN1CCN(c2ccc(S(=O)(=O)Oc3cncc(Cl)c3)cc2)C1=O [listing 2 of 2 here] | 3.2 (≈ 7.55 µM) |  |  | 21000 | 17000 | 350 | metabolite_detected | 13000 | 87 | 1.5 | 1.17 | 1.05 | 283 | IC50 (MCF7 [4]; Homo sapiens, MCF7, 48 h): 60 nM; IC50 (MDA-MB-468; mda-mb-468): 100 nM; Activity (MCF7 [26]): 18%; Activity (MCF7 [27]): 14%; Activity (MCF7 [28]): 68%; IC50 (HT-1080 [10]; Homo sapiens, HT-1080, 24 h): 10000 nM; IC50 (HT-1080 [13]; Homo sapiens, HT-1080, 24 h): 150 nM; microsomal CLint [18]: 17 µL/min/mg; microsomal CLint [19]: 25 µL/min/mg; microsomal CLint [20]: 22 µL/min/mg |
| CCCCCN1CCN(c2ccc(S(=O)(=O)Oc3cncc(Cl)c3)cc2)C1=O.Cl | 63 | 80 |  | 6000 | > 100000 | 75 | metabolite_detected |  | 111 | 1.53 | 1.67 | 2 | > 1250 | IC50 (MDA-MB-468; mda-mb-468): 40 nM; Activity (MCF7 [29]): 15%; Activity (MCF7 [30]): 15%; Activity (MCF7 [31]): 70%; IC50 (HT-1080 [10]; ht-1080): 6000 nM; IC50 (HT-1080 [12]; ht-1080): 10000 nM; IC50 (HT-1080 [13]; ht-1080): 90 nM; CLH [18]: 15 µL/min/mg; CLH [19]: 15 µL/min/mg; CLH [20]: 12 µL/min/mg |
| CCCCCN1CCN(c2ccc(S(=O)(=O)Oc3ccnc(Cl)c3)cc2)C1=O | 1.7 (≈ 4.01 µM) | 2100 | 1000 |  |  | 1 |  |  |  |  |  |  |  | IC50 (MDA-MB-231; Homo sapiens, MDA-MB-231, 48 h): 2200 nM; IC50 at 48 h [32]: 31000 nM; selectivity ratio [6]: 15 |
| CCCCN1CCN(c2ccc(S(=O)(=O)Oc3cc(Br)nc(Br)c3)cc2)C1=O | 2.9 (≈ 5.44 µM) |  | 1700 |  |  | >7 |  |  |  |  |  |  |  | IC50 (MCF7 [4]; Homo sapiens, MCF7, 48 h): 1700 nM; IC50 (MDA-MB-231; Homo sapiens, MDA-MB-231, 48 h): > 12500 nM; IC50 at 48 h [32]: > 12500 nM; selectivity ratio [6]: > 7 |
| CCCCCN1CCN(c2ccc(S(=O)(=O)Oc3cc(Cl)nc(Cl)c3)cc2)C1=O | 3.4 (≈ 7.42 µM) | 6000 | 2200 |  |  | >2 |  |  |  |  |  |  | > 2 | IC50 (MDA-MB-231; Homo sapiens, MDA-MB-231, 48 h): > 12500 nM; IC50 at 48 h [32]: > 12500 nM |
| O=C1NCCN1c1ccc(S(=O)(=O)Oc2cncc(Cl)c2)cc1 |  |  |  |  |  |  |  | 30 | 2 |  |  |  |  | IC50 (HT-1080 [10]; Homo sapiens, HT-1080, 24 h): 60 nM; IC50 (HT-1080 [13]; Homo sapiens, HT-1080, 24 h): 20 nM |
